The text below walks through data of publication PMC6102536, “A Metabolism-Based Synergy for Total Coumarin Extract of Radix Angelicae Dahuricae and Ligustrazine on Migraine Treatment in Rats” (Molecules : A Journal of Synthetic Chemistry and Natural …, 2018).

SMILES strings stand for the structures. Where two headings read alike, the source gives them in different places.

What all share (experiment): P450-Glo inhibition assay, recombinant CYP
What all share (assay type): biochemical

One assay has as its target T1, CYP2D6 (Homo sapiens, UniProt P10635).
T1 construct: recombinant CYP450, commercial (Research Institute for Liver Diseases, Shanghai); P450-Glo Screening System (Promega)

The target of another assay is T2, CYP2C19 (Homo sapiens, UniProt P33261).
T2 construct: recombinant CYP450, commercial (Research Institute for Liver Diseases, Shanghai); P450-Glo Screening System (Promega)
T2 sequence (P33261 whole entry): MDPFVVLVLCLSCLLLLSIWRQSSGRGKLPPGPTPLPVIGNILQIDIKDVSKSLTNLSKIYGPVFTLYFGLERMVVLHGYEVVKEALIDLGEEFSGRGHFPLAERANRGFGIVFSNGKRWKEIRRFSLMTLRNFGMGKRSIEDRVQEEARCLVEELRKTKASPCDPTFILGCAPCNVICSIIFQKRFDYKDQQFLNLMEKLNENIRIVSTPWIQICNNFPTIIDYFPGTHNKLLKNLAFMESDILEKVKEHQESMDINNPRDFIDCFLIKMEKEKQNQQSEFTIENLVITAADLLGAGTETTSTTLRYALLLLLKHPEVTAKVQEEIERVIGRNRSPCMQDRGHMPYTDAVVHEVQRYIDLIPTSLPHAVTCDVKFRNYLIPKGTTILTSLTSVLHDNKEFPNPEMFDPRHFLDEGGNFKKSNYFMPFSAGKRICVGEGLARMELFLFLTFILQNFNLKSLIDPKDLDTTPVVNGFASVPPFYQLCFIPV

Another assay has as its target T3, CYP2C9 (Homo sapiens, UniProt P11712).
T3 construct: recombinant CYP450, commercial (Research Institute for Liver Diseases, Shanghai); P450-Glo Screening System (Promega)

Another assay has as its target T4, CYP1A2 (Homo sapiens, UniProt P05177).
T4 construct: recombinant CYP450, commercial (Research Institute for Liver Diseases, Shanghai); P450-Glo Screening System (Promega)
T4 sequence (P05177 2-516): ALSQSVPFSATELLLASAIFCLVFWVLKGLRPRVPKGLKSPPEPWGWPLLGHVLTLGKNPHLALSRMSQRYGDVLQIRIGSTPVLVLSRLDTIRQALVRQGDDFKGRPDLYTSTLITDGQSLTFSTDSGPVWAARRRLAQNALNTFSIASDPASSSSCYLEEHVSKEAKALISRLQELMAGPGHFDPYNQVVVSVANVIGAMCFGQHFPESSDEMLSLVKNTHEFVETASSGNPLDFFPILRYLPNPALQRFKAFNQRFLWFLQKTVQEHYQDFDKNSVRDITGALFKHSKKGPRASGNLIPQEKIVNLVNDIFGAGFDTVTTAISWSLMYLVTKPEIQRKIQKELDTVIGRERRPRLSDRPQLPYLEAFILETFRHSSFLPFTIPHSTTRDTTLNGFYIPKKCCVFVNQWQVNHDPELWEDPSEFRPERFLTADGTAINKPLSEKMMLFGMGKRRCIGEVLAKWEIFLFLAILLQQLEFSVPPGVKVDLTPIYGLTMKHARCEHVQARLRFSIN

Another assay deals with T5, CYP3A4 (Homo sapiens, UniProt P08684).
T5 construct: recombinant CYP450, commercial (Research Institute for Liver Diseases, Shanghai); P450-Glo Screening System (Promega)
T5 sequence (P08684 2-503): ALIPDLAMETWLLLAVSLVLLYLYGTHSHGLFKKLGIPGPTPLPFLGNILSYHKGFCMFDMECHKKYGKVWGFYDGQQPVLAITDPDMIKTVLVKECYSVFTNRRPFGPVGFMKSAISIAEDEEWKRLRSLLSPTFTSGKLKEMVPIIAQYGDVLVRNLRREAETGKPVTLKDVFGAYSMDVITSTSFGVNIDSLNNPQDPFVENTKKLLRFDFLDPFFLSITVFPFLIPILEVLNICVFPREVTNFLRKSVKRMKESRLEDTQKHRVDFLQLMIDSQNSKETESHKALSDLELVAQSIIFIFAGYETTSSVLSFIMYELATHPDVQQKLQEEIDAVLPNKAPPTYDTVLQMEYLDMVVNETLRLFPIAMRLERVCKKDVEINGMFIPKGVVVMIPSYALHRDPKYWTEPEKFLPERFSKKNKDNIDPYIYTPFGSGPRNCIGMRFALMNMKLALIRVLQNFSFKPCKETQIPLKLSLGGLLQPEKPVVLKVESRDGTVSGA
The following applies: read-out: IC50 (μM) (95% Confidence Interval) / Isoimperatorin.

Where [1] appears, read: read-out: IC50 (μM) (95% Confidence Interval) / Isoimperatorin.

T1 sequence (P10635 whole entry): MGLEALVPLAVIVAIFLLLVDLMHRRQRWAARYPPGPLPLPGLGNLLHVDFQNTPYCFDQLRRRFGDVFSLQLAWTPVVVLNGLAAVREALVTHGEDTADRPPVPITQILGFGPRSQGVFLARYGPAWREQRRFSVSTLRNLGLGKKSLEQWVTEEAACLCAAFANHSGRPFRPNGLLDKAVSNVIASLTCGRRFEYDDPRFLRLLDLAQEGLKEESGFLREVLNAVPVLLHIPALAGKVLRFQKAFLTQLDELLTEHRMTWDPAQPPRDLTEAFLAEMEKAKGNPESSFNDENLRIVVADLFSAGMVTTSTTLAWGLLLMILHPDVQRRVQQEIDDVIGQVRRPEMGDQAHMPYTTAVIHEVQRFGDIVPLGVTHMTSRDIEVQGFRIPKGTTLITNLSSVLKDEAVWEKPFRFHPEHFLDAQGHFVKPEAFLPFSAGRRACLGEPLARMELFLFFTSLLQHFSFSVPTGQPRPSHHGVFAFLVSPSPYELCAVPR
T3 sequence (P11712 whole entry): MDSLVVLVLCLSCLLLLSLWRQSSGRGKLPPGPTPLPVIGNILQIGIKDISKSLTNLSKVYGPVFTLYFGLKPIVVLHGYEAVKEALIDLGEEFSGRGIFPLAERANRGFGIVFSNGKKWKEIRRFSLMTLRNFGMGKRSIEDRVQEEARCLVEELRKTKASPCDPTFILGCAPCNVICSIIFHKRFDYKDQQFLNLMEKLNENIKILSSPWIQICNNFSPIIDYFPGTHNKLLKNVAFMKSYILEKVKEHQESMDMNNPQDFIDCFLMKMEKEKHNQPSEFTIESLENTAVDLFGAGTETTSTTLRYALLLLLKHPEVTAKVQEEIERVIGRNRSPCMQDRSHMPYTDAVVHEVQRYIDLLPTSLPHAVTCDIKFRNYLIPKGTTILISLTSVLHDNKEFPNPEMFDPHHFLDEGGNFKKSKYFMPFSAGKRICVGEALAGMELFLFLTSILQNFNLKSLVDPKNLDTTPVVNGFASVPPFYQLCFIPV

`CC(C)=CCOc1c2occc2cc2ccc(=O)oc12` [imperatorin]: the IC50 at CYP2D6 turned out to be 9.1 µM; on CYP2C19, 83.3 µM; on CYP2C9, 4.81 µM; on CYP1A2 it was 0.08 µM.

Turning to `CC(C)=CCOc1c2ccoc2cc2oc(=O)ccc12` [isoimperatorin], the IC50 came out at 1.56 µM at CYP2D6 (setting [1]); 19.6 µM on CYP2C19 (setting [1]); 5.69 µM on CYP2C9 (setting [1]); 8.26 µM at CYP1A2 (setting [1]); 1.47 µM at CYP3A4.
